According to patent US5750362A, “Methods for identifying substances with a potential herbicidal or growth-regulating action by means of plant transporter proteins, the use of the transporter proteins, and substances with a herbicidal and growth-regulating action” (BASF Aktiengesellschaft, priority 1993, dated 1998):

Key:
[1] = biological target: T1, ammonium transporter AMT1 (Arabidopsis thaliana, UniProt P54144); assay: cell-based; settings: pH 7; [14C]-methylamine uptake; tested substance 10 μM; read-out: Activity relative to the control [%]
T1 construct: expressed in transfected cells; host or cells: Saccharomyces cerevisiae 26972c (mutations in MEP1 and MEP2)
T1 sequence (P54144 1-501): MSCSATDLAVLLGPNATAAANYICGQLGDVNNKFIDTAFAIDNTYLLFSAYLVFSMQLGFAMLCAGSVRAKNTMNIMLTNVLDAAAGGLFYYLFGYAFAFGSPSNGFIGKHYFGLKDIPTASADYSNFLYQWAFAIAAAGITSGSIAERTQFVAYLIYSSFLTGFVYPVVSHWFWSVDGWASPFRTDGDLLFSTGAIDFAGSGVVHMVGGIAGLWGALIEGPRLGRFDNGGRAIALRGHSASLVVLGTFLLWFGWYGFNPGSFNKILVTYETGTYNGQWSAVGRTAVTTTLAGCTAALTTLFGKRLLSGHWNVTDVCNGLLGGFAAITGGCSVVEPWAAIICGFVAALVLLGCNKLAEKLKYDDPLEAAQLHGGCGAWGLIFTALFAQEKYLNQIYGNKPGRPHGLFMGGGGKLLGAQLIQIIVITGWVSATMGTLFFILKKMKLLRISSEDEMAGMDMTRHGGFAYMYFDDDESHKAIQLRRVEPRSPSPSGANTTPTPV

[2] = biological target: T2, sucrose transporter S21 (SoSUT1) (Spinacia oleracea, UniProt Q03411); assay: [14C]-sucrose uptake by yeast strain SUSY7 expressing the spinach sucrose transporter; type: cell-based; settings: [14C]-sucrose uptake, pH 3.8, read-out: Activity relative to the control [%]
T2 construct: expressed in transfected cells; host or cells: Saccharomyces cerevisiae SUSY7
T2 sequence (Q03411 1-525): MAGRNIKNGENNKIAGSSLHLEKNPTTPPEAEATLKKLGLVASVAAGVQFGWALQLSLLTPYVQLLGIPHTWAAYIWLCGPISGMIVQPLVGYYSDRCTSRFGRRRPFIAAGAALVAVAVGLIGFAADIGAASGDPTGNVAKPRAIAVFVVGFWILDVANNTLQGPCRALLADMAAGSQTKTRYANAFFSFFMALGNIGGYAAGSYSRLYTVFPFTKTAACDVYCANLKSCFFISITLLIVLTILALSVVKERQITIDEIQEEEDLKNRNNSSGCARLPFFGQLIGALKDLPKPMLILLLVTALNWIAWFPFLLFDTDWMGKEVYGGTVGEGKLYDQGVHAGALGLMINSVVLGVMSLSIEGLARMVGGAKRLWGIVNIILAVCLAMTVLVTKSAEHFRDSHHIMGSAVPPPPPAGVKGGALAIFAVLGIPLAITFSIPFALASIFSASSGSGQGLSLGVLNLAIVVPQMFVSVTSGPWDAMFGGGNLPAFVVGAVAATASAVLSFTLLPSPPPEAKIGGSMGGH

[3] = tested on: sucrose transporters; settings: Bush, 1989, Plant Physiol. 89: 1318-1323; result in words; cited from earlier work

Row | remaining activity at 500 µM ([2]; tested substance 0.5 mM) [%] | Structure (SMILES) | remaining activity at 10 µM [1] [%] | remaining activity at 10 µM ([2]; tested substance 10 μM) [%] | Inhibition of sucrose transport [3]
1 | – | N#CC(C#N)=NNc1cccc(Cl)c1 [CCCP] | 40 | 10 | –
2 | 6 | CCOC(=O)OC(=O)OCC [DEPC, diethyl pyrocarbonate] | – | – | highly effective transport inhibitors
